Laboratory results taken from patent US4696912A, “Stabilized compositions” (priority 1986, dated 1987).
≈ marks a conversion by molar mass, not a printed value. Read-outs that look alike come from different tables or passages of the source.

Columns and labels:
P388 Lymphatic Leukemia = experiment: In vivo antitumor activity against P388 lymphatic leukemia in mice
Description: In Vivo Antitumor Activity of CL-1565-A Against P388 Lymphatic Leukemia in Mice
The test method used is based on that described in Cancer Chemother. Reports 3:1-87 (part 3). 1972.

L1210 Leukemia Cells = experiment: In vitro activity of CL-1565-A against L1210 leukemia cells; type: cell-based; conditions: Mus musculus, read-out: ID50 (the source's name)
[1] = Stability in solid state form (HPLC assay); type: physicochemical; conditions: for remaining at 168 h / remaining at 504 h / remaining at 840 h: Table 1, solid state; for remaining at 168 h: 1 week; for remaining at 168 h / remaining at 504 h / remaining at 840 h / remaining at 2160 h / remaining at 3600 h / remaining at 6480 h / remaining at 16560 h: read-out: % CL-1565-A Remaining; for remaining at 504 h: 3 weeks; for remaining at 840 h: 5 weeks; for remaining at 2160 h / remaining at 3600 h / remaining at 6480 h / remaining at 16560 h: Table 3, solid form; for remaining at 2160 h: 3 months; for remaining at 3600 h: 5 months; for remaining at 6480 h: 9 months; for remaining at 16560 h: 23 months
Method: *Samples prepared by lyophilization of 1.5 mL aliquots of an aqueous
solution containing 15 mg of CL1565-A per ml.
^a Samples prepared by lyophilization of 1.5 mL of an aqueous solutio
containing 15 mg/mL of CL1565-A in 6mL serum vials.
^b Samples prepared by mixing CL1565-A and sodium ascorbate (1:1 mola
ratio) in solution prior to lyophilization.
(§1) CL-1565-A content was assayed by HPLC using a uBondapak C-18 silica gel column (Waters Assoc.) and 0.05 M pH 6.8 sodium phosphate buffer--acetonitrile (89:11) as the mobile phase, at a flow rate of 2 mL/minute. The retention time of CL-1565-A in this system is approximately 4.7 minutes. Solid samples were reconstituted in 100 mL of water immediately prior to HPLC assay. Solutions of CL-1565-A were diluted to a final concentration of 300 ug/mL with water prior to assay.

Saccharomyces italicus = experiment: Antifungal activity, paper disk zone of inhibition; type: cell-based; conditions: 12.7 mm paper disks, 500 ug/ml, overnight at 28° C.; read-out: Zone diameter
Method: (§2) Paper disks (12.7 mm in diameter) impregnated with an aqueous solution containing 500 ug of CL-1565-A/ml were placed on a layer of agar inoculated with the indicated microorganisms. After incubation overnight at 28° C., the following zones of inhibition were observed.

Saccharomyces cervisiae = experiment: Antifungal activity, paper disk zone of inhibition; type: cell-based; conditions: 12.7 mm paper disks, 500 ug/ml, overnight at 28° C., read-out: Zone diameter
Method: as §2

[2] = Stability in aqueous solution (HPLC assay); type: physicochemical; conditions: for remaining at 168 h / remaining at 336 h / remaining at 552 h / remaining at 48 h: aqueous solution, read-out: % CL-1565-A Remaining; for remaining at 168 h: 7 days; for remaining at 336 h: 14 days; for remaining at 48 h: 2 days
Method: ^b Solutions prepared by adding sodium ascorbate to solutions of
CL1565-A to yield an equimolar concentration.
as §1

[3] = Table 2, aqueous solution 5 mg/mL, 5° C.
[4] = Table 2, aqueous solution 5 mg/mL, 25° C.
[5] = Table 2, aqueous solution 15 mg/mL, 5° C.
[6] = Table 2, aqueous solution 15 mg/mL, 25° C.

Compound: CC(O)(C=CC1CC=CC(=O)O1)C(CC(O)C=CC=CC=CCO)OP(=O)(O)O (stereo not shown) [CL-1565-A]
- T/C × 100 (P388 Lymphatic Leukemia; 1.1 mg/kg/day, test-1): 170
- T/C × 100 (P388 Lymphatic Leukemia; 1.1 mg/kg/day, test-2): 139
- T/C × 100 (P388 Lymphatic Leukemia; 2.1 mg/kg/day, test-1): 173
- T/C × 100 (P388 Lymphatic Leukemia; 2.1 mg/kg/day, test-2): 157
- T/C × 100 (P388 Lymphatic Leukemia; 4.3 mg/kg/day, test-1): 170
- T/C × 100 (P388 Lymphatic Leukemia; 4.3 mg/kg/day, test-2): 172
- T/C × 100 (P388 Lymphatic Leukemia; 6.3 mg/kg/day, test-3): 142
- T/C × 100 (P388 Lymphatic Leukemia; 8.5 mg/kg/day, test-1): 256
- T/C × 100 (P388 Lymphatic Leukemia; 8.5 mg/kg/day, test-2): 209
- T/C × 100 (P388 Lymphatic Leukemia; 12.5 mg/kg/day, test-3): 150
- T/C × 100 (P388 Lymphatic Leukemia; 17 mg/kg/day, test-1): 256
- T/C × 100 (P388 Lymphatic Leukemia; 17 mg/kg/day, test-2): 248
- T/C × 100 (P388 Lymphatic Leukemia; 25 mg/kg/day, test-3): 174
- IC50 (L1210 Leukemia Cells): 0.078 µg/mL (≈ 0.181 µM)
- remaining at 168 h ([1]; 5° C.): 100%
- remaining at 504 h ([1]; 5° C.): 100%
- remaining at 840 h ([1]; 5° C.): 100%
- remaining at 168 h ([1]; 25° C.): 87%
- remaining at 504 h ([1]; 25° C.): 77%
- remaining at 840 h ([1]; 25° C.): 69%
- remaining at 168 h ([1]; 37° C.): 70%
- remaining at 504 h ([1]; 37° C.): 26%
- remaining at 168 h ([1]; -15° C.): 100%
- remaining at 504 h ([1]; -15° C.): 100%
- remaining at 840 h ([1]; -15° C.): 100%
- remaining at 2160 h ([1]; 5°): 88%
- remaining at 3600 h ([1]; 5°): 86%
- remaining at 6480 h ([1]; 5°): 79%
- remaining at 16560 h ([1]; 5°): 74%
- remaining at 2160 h ([1]; 25°): 61%
- remaining at 2160 h ([1]; -15°): 100%
- remaining at 3600 h ([1]; -15°): 100%
- remaining at 6480 h ([1]; -15°): 100%
- remaining at 16560 h ([1]; -15°): 100%
- degraded at 840 h ([1]; five weeks at 25° C., read-out: decomposition): 31%
- zone of inhibition at 500 µg/mL (Saccharomyces italicus): 17 mm
- zone of inhibition at 500 µg/mL (Saccharomyces cervisiae): 25 mm
- remaining at 168 h [2, 3]: 92%
- remaining at 336 h [2, 3]: 83%
- remaining at 552 h ([2]; Table 2, aqueous solution 5 mg/mL, 5° C., 23 days): 76%
- remaining at 168 h [2, 4]: 77%
- remaining at 336 h [2, 4]: 63%
- remaining at 552 h ([2]; Table 2, aqueous solution 5 mg/mL, 25° C., 23 days): 45%
- remaining at 168 h [2, 5]: 81%
- remaining at 336 h [2, 5]: 76%
- remaining at 552 h ([2]; Table 2, aqueous solution 15 mg/mL, 5° C., 23 days): 66%
- remaining at 168 h [2, 6]: 67%
- remaining at 336 h [2, 6]: 55%
- remaining at 552 h ([2]; Table 2, aqueous solution 15 mg/mL, 25° C., 23 days): 42%
- remaining at 168 h ([2]; Table 2, aqueous solution 15 mg/mL, 37° C.): 35%
- remaining at 48 h ([2]; Table 4, aqueous solution 15 mg/mL, 5° C.): 90%
- remaining at 552 h ([2]; Table 4, aqueous solution 15 mg/mL, 5° C., 23 days): 66%
- remaining at 48 h ([2]; Table 4, aqueous solution 15 mg/mL, 25° C.): 87%
- remaining at 552 h ([2]; Table 4, aqueous solution 15 mg/mL, 25° C., 23 days): 42%
- degraded at 552 h ([2]; water, 23 days, 15 mg/mL in aqueous solution, read-out: decomposition): 48%
